From patent publication US11506670B2, “Method of genome-wide direct identification of electrophile-sensing targets” (Cornell University, priority 2018, dated 2022) come the findings set out here.

This experiment relates to HaloTag. Nature of the experiment: Reaction of purified recombinant HaloTag with HNE, in-gel fluorescence. Conditions: 0-16 equiv., 20-min incubation. It counts as biochemical. The method, then:
HEK293T cells expressing HaloTag alone treated under standard T-REX™ delivery conditions with Ht-PreHNE were exposed to UV light (0.3 mW/cm^2, 365 nm) for the indicated time periods at which point the cells were harvested, lysed, and subjected to Click coupling and in-gel fluorescence analysis followed by western blot. Error bars designate SD (N=3). […] Purified recombinant HaloTag was treated with either the photocaged precursor Ht-PreHNE (FIG. 17, inset, and FIG. 29) (2 equiv., lane a, positive control), or directly with reactive electrophile HNE (FIG. 29) (0, 2, 4, 8, 16 equiv., lane b, c, d, e, f, respectively). After 20-min incubation, the samples were analyzed by in-gel fluorescence. M, molecular weight ladder.

SMILES strings stand for the structures.

On to `CCCCCC(O)/C=C/C=O` (stereo not shown) [HNE, 4-hydroxynonenal], for which the “reaction of HaloTag with HNE” value is recorded as “does not react”.
